In PMC11823630, “In vitro potentiation of tetracyclines in Pseudomonas aeruginosa by RW01, a new cyclic peptide” (Antimicrobial Agents and Chemotherapy, 2024):
Values after ≈ are worked out from the molar mass of the structure shown.

Columns and labels:
P. aeruginosa 125A = experiment: MIC, CLSI broth microdilution in BD Phoenix AST Broth; format: cell-based, Pseudomonas aeruginosa; conditions: Pseudomonas aeruginosa; strain 125A; agent alone; 37°C, 18–22 h; three biological replicates
Procedure: (§1) MIC for RW01 was also tested.
(§2) FIC of RW01 (FICRW01)=MIC of RW01 in combination/MIC of RW01 alone,FIC of antibiotic (FICATB)=MIC of ATB in combination/MIC of ATB alone,FICI=FICRW01 +FICATB.
(§3) FICI was interpreted as follows: synergistic effect if FICI is ≤0.5; additive effect if 0.5 < FICI ≤ 1.0; indifferent effect if 1.0 < FICI ≤ 2.0; and finally, antagonistic effect if FICI is >2.0. The average FICI considering the antibiotic MIC (no growth in any of the replicates) at different concentrations of RW01 was calculated ([28]).

P. aeruginosa 125B = experiment: as above; format: cell-based, Pseudomonas aeruginosa; conditions: Pseudomonas aeruginosa; strain 125B; agent alone; 37°C, 18–22 h; three biological replicates
Procedure: as §1, §2, §3

P. aeruginosa 41A = experiment: as above; format: cell-based, Pseudomonas aeruginosa; conditions: Pseudomonas aeruginosa; strain 41A; agent alone; 37°C, 18–22 h; three biological replicates
Procedure: as §1, §2, §3

P. aeruginosa 41B = experiment: as above; format: cell-based, Pseudomonas aeruginosa; conditions: Pseudomonas aeruginosa; strain 41B; agent alone; 37°C, 18–22 h; three biological replicates
Procedure: as §1, §2, §3

P. aeruginosa PAO1 = experiment: as above; format: cell-based, Pseudomonas aeruginosa; conditions: Pseudomonas aeruginosa, PAO1, strain PAO1; agent alone; 37°C, 18–22 h; three biological replicates; read-out: MIC
Procedure: as §1, §2, §3

P. aeruginosa PAOUW = experiment: as above; format: cell-based, Pseudomonas aeruginosa; conditions: Pseudomonas aeruginosa, strain PAOUW; agent alone; 37°C, 18–22 h; three biological replicates; read-out: MIC
Procedure: as §1, §2, §3

P. aeruginosa PAOUW∆oprF = experiment: as above; format: cell-based, Pseudomonas aeruginosa; conditions: Pseudomonas aeruginosa, strain PAOUWΔoprF; agent alone; 37°C, 18–22 h; three biological replicates
Procedure: as §1, §2, §3

P. aeruginosa PAOΔmexR = experiment: as above; format: cell-based, Pseudomonas aeruginosa; conditions: Pseudomonas aeruginosa
Procedure: as §1, §2, §3

P. aeruginosa PAOΔmexZ = experiment: as above; format: cell-based, Pseudomonas aeruginosa; conditions: Pseudomonas aeruginosa, strain PAOΔmexZ; agent alone; 37°C, 18–22 h; three biological replicates
Procedure: as §1, §2, §3

P. aeruginosa PAOΔoprM = experiment: as above; format: cell-based, Pseudomonas aeruginosa; conditions: Pseudomonas aeruginosa
Procedure: as §1, §2, §3

P. aeruginosa PAO1, WT = experiment: MIC, Sensititre custom plate; format: cell-based; conditions: Pseudomonas aeruginosa, PAO1, read-out: MIC, Sensititre
Procedure: (§4) Selection of resistant mutants was performed for minocycline with and without RW01 in three independent replicates for wild-type P. aeruginosa reference strain PAO1. Tubes containing Mueller-Hinton broth (MHB) were inoculated and incubated for 24 h at 37°C. Afterward, 1/100 dilution of each tube was incubated at 37°C in MHB to late-exponential growth phase, measured by spectrophotometry at OD600. […] A control plate without antibiotic was included as inoculum control. After overnight incubation, colony counting of each treatment was performed to analyze the generation of resistant population. The mutant prevention concentration (MPC) was defined as the lowest concentration of antibiotic yielding no growth of resistant mutants. Selected mutants were checked for susceptibility profiles by using a Sensititre custom plate (Thermo Fisher Scientific, Massachusetts, USA) for Gram-negative bacteria, following the manufacturer’s instructions.

[1] = system: PAO1 mutant MIN16_1, nalD(T43P); experiment: MIC, Sensititre custom plate; format: cell-based; conditions: Pseudomonas aeruginosa, PAO1, read-out: MIC, Sensititre
Procedure: as §4

[2] = system: PAO1 mutant MIN16_2, nalC(aa9∆4), pilQ(nt46∆1); experiment: MIC, Sensititre custom plate; format: cell-based; conditions: Pseudomonas aeruginosa, PAO1, read-out: MIC, Sensititre
Procedure: as §4

[3] = system: PAO1 mutant MIN16_3, nfxB(nt79∆14), pilB(N349K); experiment: MIC, Sensititre custom plate; format: cell-based; conditions: Pseudomonas aeruginosa, PAO1, read-out: MIC, Sensititre
Procedure: as §4

[4] = system: PAO1 mutant MIN16_4, nalC(T50P), pilM(Q62X); experiment: MIC, Sensititre custom plate; format: cell-based; conditions: Pseudomonas aeruginosa, PAO1, read-out: MIC, Sensititre
Procedure: as §4

[5] = system: PAO1 mutant MIN1_RW01_1, pmrB(Y98N); experiment: MIC, Sensititre custom plate; format: cell-based; conditions: Pseudomonas aeruginosa, PAO1, read-out: MIC, Sensititre
Procedure: as §4

[6] = system: PAO1 mutant MIN1_RW01_2, mexR(G58E), pilB(G326D), hutC(Y181X); experiment: MIC, Sensititre custom plate; format: cell-based; conditions: Pseudomonas aeruginosa, PAO1, read-out: MIC, Sensititre
Procedure: as §4

[7] = system: PAO1 mutant MIN1_RW01_3, pmrB(V215L); experiment: MIC, Sensititre custom plate; format: cell-based; conditions: Pseudomonas aeruginosa, PAO1, read-out: MIC, Sensititre
Procedure: as §4

[8] = system: PAO1 mutant MIN2_RW01_1, pmrB(V215L); experiment: MIC, Sensititre custom plate; format: cell-based; conditions: Pseudomonas aeruginosa, PAO1, read-out: MIC, Sensititre
Procedure: as §4

[9] = system: PAO1 mutant MIN2_RW01_2, pmrB(M292T); experiment: MIC, Sensititre custom plate; format: cell-based; conditions: Pseudomonas aeruginosa, PAO1, read-out: MIC, Sensititre
Procedure: as §4

[10] = system: PAO1 mutant MIN2_RW01_3, parS(V152A); experiment: MIC, Sensititre custom plate; format: cell-based; conditions: Pseudomonas aeruginosa, PAO1, read-out: MIC, Sensititre
Procedure: as §4

[11] = system: PAO1 mutant MIN2_RW01_4, pmrB(M292T); experiment: MIC, Sensititre custom plate; format: cell-based; conditions: Pseudomonas aeruginosa, PAO1, read-out: MIC, Sensititre
Procedure: as §4

[12] = system: PAO1 mutant MIN32_1, mexR(R63H), pilB(N349K), PA0646(V316G); experiment: MIC, Sensititre custom plate; format: cell-based; conditions: Pseudomonas aeruginosa, PAO1, read-out: MIC, Sensititre
Procedure: as §4

[13] = system: PAO1 mutant MIN4_RW01_1, pmrB(R429H); experiment: MIC, Sensititre custom plate; format: cell-based; conditions: Pseudomonas aeruginosa, PAO1, read-out: MIC, Sensititre
Procedure: as §4

[14] = system: PAO1 mutant MIN4_RW01_3, pmrB(M292T); experiment: MIC, Sensititre custom plate; format: cell-based; conditions: Pseudomonas aeruginosa, PAO1, read-out: MIC, Sensititre
Procedure: as §4

[15] = system: PAO1 mutant MIN4_RW01_4, pmrB(Y98N); experiment: MIC, Sensititre custom plate; format: cell-based; conditions: Pseudomonas aeruginosa, PAO1, read-out: MIC, Sensititre
Procedure: as §4

[16] = system: PAO1 mutant MIN8_1, nalD(R3C), pilM(Q62X); experiment: MIC, Sensititre custom plate; format: cell-based; conditions: Pseudomonas aeruginosa, PAO1, read-out: MIC, Sensititre
Procedure: as §4

[17] = system: PAO1 mutant MIN8_2, pilZ(nt18InsT); experiment: MIC, Sensititre custom plate; format: cell-based; conditions: Pseudomonas aeruginosa, PAO1, read-out: MIC, Sensititre
Procedure: as §4

[18] = system: PAO1 mutant MIN8_3, pilZ(nt18InsT); experiment: MIC, Sensititre custom plate; format: cell-based; conditions: Pseudomonas aeruginosa, PAO1, read-out: MIC, Sensititre
Procedure: as §4

[19] = system: PAO1 mutant MIN8_4, pilZ(nt18InsT); experiment: MIC, Sensititre custom plate; format: cell-based; conditions: Pseudomonas aeruginosa, PAO1, read-out: MIC, Sensititre
Procedure: as §4

[20] = system: PAO1 mutant MIN1_RW01_4, pmrB(F124L); experiment: microbe, parasite or virus in culture; format: cell-based; conditions: Pseudomonas aeruginosa, PAO1, read-out: MIC, Sensititre
Procedure: as §4

[21] = system: PAO1 mutant MIN4_RW01_2, pmrB(F124S); experiment: microbe, parasite or virus in culture; format: cell-based; conditions: Pseudomonas aeruginosa, PAO1, read-out: MIC, Sensititre
Procedure: as §4

Row | Compound | MIC (P. aeruginosa 125A) | MIC (P. aeruginosa 125B) | MIC (P. aeruginosa 41A) | MIC (P. aeruginosa 41B) | MIC (P. aeruginosa PAO1) | MIC (P. aeruginosa PAOUW) | MIC (P. aeruginosa PAOUW∆oprF) | MIC (P. aeruginosa PAOΔmexR) | MIC (P. aeruginosa PAOΔmexZ) | MIC (P. aeruginosa PAOΔoprM) | MIC (P. aeruginosa PAO1, WT) | MIC [1] | MIC [2] | MIC [3] | MIC [4] | MIC [5] | MIC [6] | MIC [7] | MIC [8] | MIC [9] | other results
1 | CC(C)(O/N=C(\C(=O)N[C@@H]1C(=O)N2C(C(=O)[O-])=C(C[n+]3ccccc3)CS[C@H]12)c1csc(N)n1)C(=O)O [Ceftazidime, ceftazidime] | 8 µg/mL | 4 µg/mL | 4 µg/mL | 8 µg/mL | 2 µg/mL | 2 µg/mL | 2 µg/mL | 4 µg/mL | 4 µg/mL | 2 µg/mL | 1 to 2 µg/mL (≈ 1.83 to 3.66 µM) | 4 µg/mL (≈ 7.32 µM) | 4 µg/mL (≈ 7.32 µM) | 2 µg/mL (≈ 3.66 µM) | 4 µg/mL (≈ 7.32 µM) | ≤ 1 µg/mL | 4 µg/mL (≈ 7.32 µM) | ≤ 1 µg/mL | 2 µg/mL (≈ 3.66 µM) | 2 µg/mL (≈ 3.66 µM) | MIC [10]: 2 µg/mL (≈ 3.66 µM); MIC [11]: 2 µg/mL (≈ 3.66 µM); MIC [12]: 4 µg/mL (≈ 7.32 µM); MIC [13]: 4 µg/mL (≈ 7.32 µM); MIC [14]: ≤ 1 µg/mL; MIC [15]: ≤ 1 µg/mL; MIC [16]: 4 µg/mL (≈ 7.32 µM); MIC [17]: 4 µg/mL (≈ 7.32 µM); MIC [18]: 4 µg/mL (≈ 7.32 µM); MIC [19]: 4 µg/mL (≈ 7.32 µM); MIC [20]: 2 µg/mL (≈ 3.66 µM); MIC [21]: ≤ 1 µg/mL
2 | C[C@@H](O)[C@H]1C(=O)N2C(C(=O)O)=C(SCCN=CN)C[C@H]12 [Imipenem, imipenem] | 2 µg/mL | 2 µg/mL | 2 µg/mL | 16 µg/mL | 2 µg/mL | 8 µg/mL | 2 µg/mL | 0.5 µg/mL | 2 µg/mL | 2 µg/mL | 1 to 2 µg/mL (≈ 3.34 to 6.68 µM) | 2 to 4 µg/mL (≈ 6.68 to 13.4 µM) | 2 µg/mL (≈ 6.68 µM) | 1 µg/mL (≈ 3.34 µM) | 2 µg/mL (≈ 6.68 µM) | 2 µg/mL (≈ 6.68 µM) | 1 µg/mL (≈ 3.34 µM) | 2 µg/mL (≈ 6.68 µM) | 4 µg/mL (≈ 13.4 µM) | 2 µg/mL (≈ 6.68 µM) | MIC [10]: 8 µg/mL (≈ 26.7 µM); MIC [11]: 2 µg/mL (≈ 6.68 µM); MIC [12]: 2 µg/mL (≈ 6.68 µM); MIC [13]: 2 to 4 µg/mL (≈ 6.68 to 13.4 µM); MIC [14]: 16 µg/mL (≈ 53.4 µM); MIC [15]: 4 µg/mL (≈ 13.4 µM); MIC [16]: 2 µg/mL (≈ 6.68 µM); MIC [17]: 2 µg/mL (≈ 6.68 µM); MIC [18]: 2 µg/mL (≈ 6.68 µM); MIC [19]: 2 µg/mL (≈ 6.68 µM); MIC [20]: 2 µg/mL (≈ 6.68 µM); MIC [21]: 2 µg/mL (≈ 6.68 µM)
